Laboratory results from patent US9844585B2, “Convection enhanced delivery apparatus, method, and application” (YALE UNIVERSITY, priority 2007, dated 2017).
Entries after “also recorded” stand apart in the source; their conditions may differ.

Legend:
rat brain = settings: hyperosmolar mannitol co-infusion; cited from earlier work
[1] = co-infused with 20% mannitol; cited from earlier work
[2] = system: striatum of the normal rat brain; test: In vivo nanoparticle infusions by CED with enzymatic or hyperosmolar treatment
hyaluronan (HA) = test: Histochemical assessment of hyaluronan degradation (HABP staining); type: in vivo, rat
Method: Degradation of HA was determined by staining with hyaluronic acid binding protein (HABP) following 1 μL infusions of 1000 U/mL hyaluronidase into the striatum following the same surgical procedure outlined above. Following degradation times of 30 min, 6, 12, and 24 hr brains were harvested and post-fixed in 4% paraformaldehyde in PBS at 4° C. for 4 days. The tissue was cryo-protected in 30% sucrose for 3 days, frozen at −70° C., and sectioned into 50 μm slices. Tissue slices were immersed in biotinylated HABP ([…], Calbiochem 385911) in PBS and left overnight on an orbital shaker. Slides were then immersed Alexa 555-Streptavidin conjugate (2 mg/mL, Invitrogen S21281) for two hours. Following several washing steps in PBS, stained slices were mounted with ProLong Gold Antifade media (Invitrogen P36930) and covered. Fluorescent images were captured using the same set-up described for nanoparticle imaging.

[3] = in 0.3% agarose; cited from earlier work
xenografted tumors = settings: following collagenase treatment of xenografted tumors; cited from earlier work

OC[C@@H](O)[C@@H](O)[C@H](O)[C@H](O)CO [Mannitol, mannitol]
increase in the distribution volume of 40 nm liposomes (rat brain): 50% | distribution volume of 2 kDa dextran [1]: unchanged | entrainment of nanoparticles in perivascular spaces / branched distribution indicative of perivascular transport ([2]; co-infusion of mannitol with nanoparticles): attenuated; also recorded: not observed | increase in nanoparticle distribution volume ([2]; co-infusion with 25% mannitol, untreated tissue vs untreated tissue without mannitol): 133% | increase in nanoparticle distribution volume ([2]; mannitol co-infusion into enzyme-treated (24 hr hyaluronidase) tissue vs enzyme-treated tissue): 23%

Hyaluronidase
degradation of HA by HABP staining (hyaluronan (HA); 30 min and 6 hr after 1 μL of 1000 U/mL): some evidence of degradation | degradation of HA by HABP staining (hyaluronan (HA); 12 hr and 24 hr after 1 μL of 1000 U/mL): widespread degradation of HA | degradation of HA by HABP staining (hyaluronan (HA); 24 hr incubation): most complete digestion of HA | effect on nanoparticle distribution volume ([2]; 30 min digestion with hyaluronidase): no measurable change; also recorded: no measurable effect | increase in nanoparticle distribution volume ([2]; 24 hr digestion with hyaluronidase vs normal tissue): 70%

albumin
diffusivity D [3]: 8.3×10^−7 cm^2/s

collagenase
increase in the diffusivity of IgG (xenografted tumors): 100%
